A value given as a limit tells only on which side of the number the result lay.

Test [1] deals with T1, SLK (Homo sapiens, UniProt Q9H2G2). Description: biochemical.
The target of test [2] is T2, full length GAK protein N-terminally fused with NanoLuc luciferase (Homo sapiens, UniProt O14976).
T2 sequence (O14976 2-1311): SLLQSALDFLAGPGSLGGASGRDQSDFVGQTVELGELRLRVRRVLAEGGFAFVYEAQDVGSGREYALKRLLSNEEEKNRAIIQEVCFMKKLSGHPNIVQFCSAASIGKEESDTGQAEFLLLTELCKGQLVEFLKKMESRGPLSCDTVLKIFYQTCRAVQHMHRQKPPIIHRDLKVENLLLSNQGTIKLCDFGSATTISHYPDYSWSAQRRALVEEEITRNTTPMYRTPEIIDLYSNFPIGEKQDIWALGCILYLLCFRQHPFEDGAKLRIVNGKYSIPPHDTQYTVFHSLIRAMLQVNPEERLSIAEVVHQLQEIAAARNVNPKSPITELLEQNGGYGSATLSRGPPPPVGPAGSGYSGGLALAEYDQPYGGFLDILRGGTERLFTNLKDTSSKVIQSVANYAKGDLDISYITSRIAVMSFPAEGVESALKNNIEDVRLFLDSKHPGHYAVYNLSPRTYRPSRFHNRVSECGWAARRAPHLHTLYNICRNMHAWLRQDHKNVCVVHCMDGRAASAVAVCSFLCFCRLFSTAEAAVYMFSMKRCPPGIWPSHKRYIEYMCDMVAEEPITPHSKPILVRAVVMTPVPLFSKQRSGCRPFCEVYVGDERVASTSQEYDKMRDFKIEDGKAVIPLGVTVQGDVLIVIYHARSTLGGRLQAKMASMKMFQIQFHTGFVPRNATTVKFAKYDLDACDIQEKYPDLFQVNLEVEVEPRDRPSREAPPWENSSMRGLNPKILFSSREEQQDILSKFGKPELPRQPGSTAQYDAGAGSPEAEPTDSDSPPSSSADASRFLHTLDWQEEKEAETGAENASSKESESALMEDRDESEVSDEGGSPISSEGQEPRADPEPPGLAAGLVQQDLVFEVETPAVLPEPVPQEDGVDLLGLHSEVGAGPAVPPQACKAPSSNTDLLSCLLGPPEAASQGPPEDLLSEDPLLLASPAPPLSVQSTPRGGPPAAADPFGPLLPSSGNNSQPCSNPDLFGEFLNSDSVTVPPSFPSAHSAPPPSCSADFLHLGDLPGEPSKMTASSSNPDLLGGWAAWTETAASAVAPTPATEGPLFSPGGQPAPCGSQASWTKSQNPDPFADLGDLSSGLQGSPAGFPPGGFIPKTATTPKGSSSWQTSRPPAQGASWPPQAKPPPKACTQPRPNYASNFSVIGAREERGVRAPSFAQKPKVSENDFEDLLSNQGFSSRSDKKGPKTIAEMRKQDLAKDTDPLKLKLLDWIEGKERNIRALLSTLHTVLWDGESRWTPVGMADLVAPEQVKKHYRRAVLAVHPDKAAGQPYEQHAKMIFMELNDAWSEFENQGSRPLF
Nature of the test: cell-based. Set-up: species or system HEK293T.

In test [3] the target is T3, GAK (Homo sapiens, UniProt O14976).
T3 sequence (O14976 12-347 limits assumed): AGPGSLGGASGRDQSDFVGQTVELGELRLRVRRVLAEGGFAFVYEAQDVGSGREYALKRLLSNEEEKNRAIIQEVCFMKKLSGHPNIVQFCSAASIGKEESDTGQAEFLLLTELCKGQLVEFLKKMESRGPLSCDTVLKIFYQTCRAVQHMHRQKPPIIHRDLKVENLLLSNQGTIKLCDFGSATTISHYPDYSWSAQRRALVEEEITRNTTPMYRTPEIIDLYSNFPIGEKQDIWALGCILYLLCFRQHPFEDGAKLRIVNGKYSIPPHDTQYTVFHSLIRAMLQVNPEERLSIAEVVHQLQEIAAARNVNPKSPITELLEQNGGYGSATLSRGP
Nature of the test: biochemical.

In test [4] the target is T4, STK10 (Homo sapiens, UniProt O94804). Description: biochemical.
The target of test [5] is T3, GAK. Nature of the test: biochemical. This is another data set of the same source.
Test [6] has as its target T1, SLK. Description: biochemical. The source holds these as a separate data set.
For test [7], the target named is T2, full length GAK protein N-terminally fused with NanoLuc luciferase. Description: cell-based. Set-up: species or system HEK293T. The source holds these as a separate data set.
For test [8], the target named is T4, STK10. Description: biochemical. This is another data set of the same source.
Test [9] concerns the target T1, SLK. Description: TR-FRET binding displacement assay. In general terms: Time-resolved FRET reads energy transfer from a long-lived donor to a nearby acceptor.
The target in test [10] is T4, STK10. Nature of the test: TR-FRET binding displacement assay.
The target in test [11] is T3, GAK. Nature of the test: TR-FRET binding displacement assay.
The target in test [12] is T2, full length GAK protein N-terminally fused with NanoLuc luciferase. Description: nanoBRET cellular target engagement. The test is classed as cell-based.
Where [13] appears, read: ATP site tracer displacement, 16-point dose response.

T1 sequence (Q9H2G2 34-292): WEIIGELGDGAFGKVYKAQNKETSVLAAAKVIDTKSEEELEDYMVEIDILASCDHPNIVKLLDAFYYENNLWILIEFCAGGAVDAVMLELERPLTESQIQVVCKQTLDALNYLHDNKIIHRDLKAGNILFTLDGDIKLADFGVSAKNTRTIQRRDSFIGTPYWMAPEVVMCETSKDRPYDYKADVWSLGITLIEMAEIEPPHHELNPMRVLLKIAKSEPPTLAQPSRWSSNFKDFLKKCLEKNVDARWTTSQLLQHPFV
T4 sequence (O94804 36-294 limits assumed): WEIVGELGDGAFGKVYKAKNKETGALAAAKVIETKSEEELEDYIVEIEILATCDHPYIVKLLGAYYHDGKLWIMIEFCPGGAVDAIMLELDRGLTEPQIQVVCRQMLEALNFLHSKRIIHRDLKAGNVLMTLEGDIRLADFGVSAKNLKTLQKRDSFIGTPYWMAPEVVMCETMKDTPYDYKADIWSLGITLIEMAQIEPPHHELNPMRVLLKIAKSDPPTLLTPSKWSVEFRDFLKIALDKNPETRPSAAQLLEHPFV

One may read the Ki as the dissociation constant of the complex between target and ligand, obtained from inhibition or displacement. A higher Ki goes with a looser hold on the target. A word on the IC50: it is the concentration at which inhibition is half-maximal. Low values mean inhibition by little substance, high ones a need for much substance. In the case of `C#Cc1cccc(Nc2ncnc3ccc(OC)cc23)c1` [compound 70, 70], the Ki on SLK [1] amounted to 2800 nM; at GAK [3], 24 nM; on STK10 [4], 2200 nM. This molecule yielded an IC50 in test [2] of 2900 nM.

In the case of `C#Cc1cccc(Nc2ncnc3ccc(Br)cc23)c1` [compound 59, 59], the inhibitory constant (Ki) was found to be 3400 nM on SLK [1], 28 nM at GAK [3] and 2500 nM on STK10 [4]. This molecule also gave a half-maximal inhibitory concentration (IC50) in test [2] greater than 5000 nM.

`C#Cc1cc(Nc2ncnc3cc(OC)c(OC)cc23)ccc1F` [compound 101, 101]: the Ki on GAK [5] was found to be 2.4 nM; on SLK [6], 72 nM; at STK10 [8], 47 nM. In test [7], this molecule yielded a concentration for half-maximal inhibition (IC50) of 140 nM.

For the molecule `C#Cc1cccc(Nc2ncnc3cc(C(F)(F)F)ccc23)c1` [compound 66, 66], the Ki on SLK [1] turned out to be 1200 nM; at GAK [3], 88 nM; at STK10 [4] it was 1000 nM. This molecule also had an IC50 in [2] greater than 5000 nM.

Turning to `C#Cc1cccc(Nc2ncnc3cc(OC)ccc23)c1` [compound 72, 72], the Ki worked out at 670 nM at SLK [1], 8.8 nM on GAK [3] and 460 nM on STK10 [4]. Besides, inhibition in test [2] was half-maximal at 1200 nM (IC50).

Consider `C#Cc1cccc(Nc2ncnc3cc(I)ccc23)c1` [compound 65, 65], for which the values for the inhibition constant Ki at SLK [1], on GAK [3] and at STK10 [4] were 180 nM, 20 nM and 150 nM, respectively. Also, the IC50 in test [2] is greater than 5000 nM.

For the molecule `C#Cc1cccc(Nc2ncnc3ccc(C#N)cc23)c1` [compound 68, 68], the Ki is 7900 nM at SLK [1], 170 nM on GAK [3] and 4700 nM on STK10 [4]. The molecule further came in with a half-inhibitory concentration (IC50) in test [2] greater than 5000 nM.

On to `C#Cc1cccc(Nc2ncnc3cc(F)c(F)cc23)c1` [compound 57, 57], for which the figures for the inhibition constant Ki at SLK [1], on GAK [3] and at STK10 [4] were 3800 nM, 85 nM and 2900 nM, respectively. Moreover, in test [2], the concentration for half-maximal inhibition (IC50) was greater than 5000 nM.

As for `C#Cc1cccc(Nc2ncnc3cc4c(cc23)OCO4)c1` [compound 73, 73], the Ki on SLK [1] was 2700 nM; at GAK [3] it was 19 nM; on STK10 [4], 1500 nM. In [2], the IC50 was found to be 1700 nM.

As to `C#Cc1ccc(F)c(Nc2ncnc3cc(C#N)ccc23)c1` [compound 87, 4-((5-ethynyl-2-fluorophenyl)amino)quinazoline-7-carbonitrile], the values for the Ki on SLK [9], at STK10 [10] and at GAK [11] were 560 nM, 670 nM and 1200 nM, respectively. Moreover, the concentration for half-maximal inhibition (IC50) in test [7] is greater than 5000 nM.

On to `COc1cc(Nc2ccnc3cc(C#N)ccc23)cc(OC)c1OC` [compound 21, 21], for which the Ki on SLK [9] was 1100 nM; on STK10 [10] it was 130 nM; at GAK [11] (setting [13]), 2.7 nM. For the same molecule, the IC50 in test [12] came out at 350 nM.

Regarding `C#Cc1cccc(Nc2ncnc3ccc(I)cc23)c1` [compound 60, 60], the inhibition constant Ki stood at 4300 nM on SLK [1], 44 nM on GAK [3] and 3700 nM on STK10 [4]. In test [2], the IC50 is greater than 5000 nM.

For `C#Cc1cccc(Nc2ncnc3ccc(F)cc23)c1` [compound 56, 56], the inhibition constant (Ki) at SLK [1] worked out at 8500 nM; at GAK [3], 70 nM; at STK10 [4], 5500 nM. The same molecule returned a half-maximal inhibitory concentration (IC50) in test [2] of 2000 nM.

`COc1cc2ncnc(Nc3ccc(F)c(Cl)c3)c2cc1NC(=O)/C=C/CN1CCCCC1` [Dacomitinib]: the inhibition constant (Ki) on SLK [9] stood at 1100 nM; on STK10 [10], 590 nM; at GAK [11], 7 nM. This molecule showed an IC50 in test [12] of 49 nM.

Turning to `COc1cc(Nc2ccnc3ccccc23)cc(OC)c1OC` [compound 7, 7], the Ki on SLK [9] is greater than 55000 nM; at STK10 [10], 27800 nM; at GAK [11] (setting [13]) it was 40 nM. The same molecule gave an IC50 in [12] of 730 nM.

As for `C#Cc1cccc(Nc2ncnc3ccc(C(F)(F)F)cc23)c1` [compound 61, 61], the results for the Ki at SLK [1], at GAK [3] and on STK10 [4] were 3200 nM, 150 nM and 3400 nM, respectively. In test [2], this molecule displayed an IC50 greater than 5000 nM.

With `COc1cc(Nc2ccnc3ccc(Cl)cc23)cc(OC)c1OC` [compound 10, 10], the inhibition constant (Ki) on SLK [9] turned out to be 11000 nM; at STK10 [10], 1000 nM; at GAK [11], 0.68 nM. This molecule also returned an IC50 in test [12] of 210 nM.

Take `C#Cc1cccc(Nc2ncnc3ccccc23)c1` [compound 54, 54]: the results for the inhibitory constant (Ki) on SLK [1], at GAK [3] and at STK10 [4] were 23000 nM, 170 nM and 10000 nM, respectively. In test [2], the IC50 was determined as 4500 nM.

Turning to `COc1ccc2c(Nc3cc(OC)c(OC)c(OC)c3)ccnc2c1` [compound 22, 22], the Ki on SLK [9] came to 13000 nM; at STK10 [10], 1300 nM; on GAK [11] (setting [13]) it was 2.6 nM. Besides, the 50% inhibitory concentration (IC50) in test [12] (HEK293T cells, tracer displacement, n=[…] mean) turned out to be 440 nM.

On to `COc1cc(Nc2ccnc3cc(I)ccc23)cc(OC)c1OC` [compound 19, 19], for which the Ki at SLK [9] came to 1700 nM; at STK10 [10], 210 nM; at GAK [11], 4.4 nM. For the same molecule, the half-maximal inhibitory concentration (IC50) in test [12] amounted to 74 nM.

Take `C#Cc1cccc(Nc2ncnc3cc(Br)ccc23)c1` [compound 64, 64]: the inhibitory constant (Ki) on SLK [1] came out at 260 nM; at GAK [3] it was 31 nM; on STK10 [4] it was 290 nM. Besides, the IC50 in test [2] is greater than 5000 nM.

For the molecule `C#Cc1cccc(Nc2ncnc3cc(F)ccc23)c1` [compound 62, 62], the results for the Ki on SLK [1], at GAK [3] and on STK10 [4] were 1200 nM, 22 nM and 1200 nM, respectively. The same molecule yielded a concentration for half-maximal inhibition (IC50) in test [2] of 4100 nM.

For the molecule `C#Cc1cc(Nc2ncnc3cc(I)ccc23)ccc1F` [compound 93, 93], the Ki on SLK [6] and on STK10 [8] was 110 nM throughout. In test [7], this molecule displayed an IC50 greater than 5000 nM.

On to `C#Cc1cccc(Nc2ncnc3cc(OC)c(OC)cc23)c1F` [compound 100, 100], for which the inhibition constant Ki on SLK [6] was 670 nM; at STK10 [8], 250 nM. Moreover, it took 400 nM to reach half-maximal inhibition in [7] (IC50).

Turning to `COc1cc(Nc2ccnc3cc(Br)ccc23)cc(OC)c1OC` [compound 18, 18], the Ki at SLK [9] is 2700 nM; at STK10 [10], 380 nM; at GAK [11], 4.9 nM. For the same molecule, in [12], half-maximal inhibition (IC50) required 270 nM.

On to `C#Cc1cccc(Nc2ncnc3ccc(Cl)cc23)c1` [compound 58, 58], for which the Ki at SLK [1] was 3900 nM; on GAK [3], 30 nM; at STK10 [4], 2800 nM. In test [2], this molecule displayed an IC50 greater than 5000 nM.

`C#Cc1cccc(Nc2ncnc3ccc(C)cc23)c1` [compound 55, 55]: the Ki was 4300 nM on SLK [1], 43 nM on GAK [3] and 2600 nM at STK10 [4]. Also, in test [2], 3600 nM corresponded to half-maximal inhibition (IC50).

Turning to `COc1cc(Nc2ccnc3ccc(C#N)cc23)cc(OC)c1OC` [compound 13, 13], the inhibition constant Ki turned out to be 19000 nM on SLK [9], 1700 nM on STK10 [10] and 1.5 nM on GAK [11] (setting [13]). Further, in test [12], the IC50 came to 360 nM.

(Values after article doi:10.1101/757047v1 (biorxiv, 2019).)
